# Laboratory results: publication PMC10535741, “Styrylpyridinium Derivatives for Fluorescent Cell Imaging” (Pharmaceuticals, 2023)
# Read-outs that look alike come from different tables or passages of the source.
# Legend:
# [1] = system: BHK-21 (Syrian hamster kidney); assay: MTT cytotoxicity assay, BHK-21; assay type: cell-based
# Excerpt: (§1) For selected compounds, 6a–6f, we performed a determination of the cytotoxicity in a wider variety of cancer and non-cancerous cell lines (see Table S2, Supplementary Materials) in order to learn the characteristic features of selectivity or the similarity of biological properties.
# (§2) The HT-1080 (human connective tissue fibrosarcoma, ATCC® CCL-121™), MH-22A (mouse hepatocarcinoma, ECACC Cat. No. 96121721), A-549 (human lung carcinoma, ATCC® CCL-185™), NIH3T3 (Swiss Albino mouse embryo fibroblast, ECACC Cat. No. 93061524), Hek293 (human embryonic kidney, ATCC® CRL-1573™), BHK-21 (Syrian hamster kidney, ATCC® CCL-10™), A-431 (human epidermoid carcinoma, ATCC® CRL-1555™), Saos-2 (human osteosarcoma, ATCC® HTB-85™), HeLa (human epitheloid cervix carcinoma, ATCC® CCL-2™), U937 (human myeloid leukaemia, ATCC® CRL-1593.2™), C6 (rat glioma, ATCC® CCL-107™), and B16-F10 (murine melanoma, ATCC® CRL-6475™) cell lines were obtained from the American Type Culture Collection (ATCC) and European Collection of Authenticated Cell Cultures (ECACC).
# (§3) HT-1080, MH-22A, A-549, NIH3T3, BHK-21, A-431, HeLa, and B16-F10 cells were cultured in Dulbecco’s Modified Eagle’s Medium (DMEM) with 2 mM glutamine and 10% foetal bovine serum (FBS). Hek293 cells were cultured in Eagle’s Minimum Essential Medium with 10% foetal bovine serum. U937 cells were cultured in RPMI-1640 Medium with 2 mM glutamine and 10% foetal bovine serum. C6 cells were cultured in Ham’s F12 Medium with 2 mM glutamine and 10% foetal bovine serum. Saos-2 cells were cultured in McCoy’s 5a Medium with 2 mM glutamine and 10% foetal bovine serum. The cells were incubated at 37 °C with 5% CO2, 95% air, and complete humidity. Once ~90% confluence was reached, they were detached using 0.05% trypsin/EDTA and counted. The cells were plated at optimally determined densities for the logarithmic phase of growth. These cells were then suspended at a concentration of 4000 cells/well for HT-1080, MH-22A, A-549, NIH3T3, BHK-21, A-431, HeLa, B16-F10, Hek293, and Saos-2 cells and a concentration of 9000 cells/well for U937, C6, Hek293, and GM08402 cells and added onto a 96-well plate. For background absorption, some wells remained cell free, i.e., as a blank control. Cells were incubated for 72 h at 37 °C and 5% CO2 where they were exposed to a media containing serial dilutions of the investigated compounds (n = 3). Cell viability was measured using the 3-(4,5-dimethylthiazol-2-yl)-2,5-diphenyl-tetrazolium bromide (MTT) assay. In brief, after incubating with compounds, the culture medium was removed and fresh medium with 0.2 mg/mL MTT was added to each well of the plate. After incubation (3 h, 37 °C, 5% CO2), the medium with MTT solution was removed and replaced with 200 µL DMSO and 25 µL Sorenson’s glycine buffer (glycine 0.1 M, NaCl 0.1 M, pH: 10.5 with 0.1 M NaOH). The plate was shaken for 15 min at room temperature and the optical density (OD) of the wells was determined using a multichannel spectrophotometer (Thermo Scientific Multiskan EX) at 540 nm. The quantity of the control cells was taken in calculations as 100%. The IC50 value was calculated using the program Graph Pad Prism® 3.0.
# (§4) The HT-1080 (human connective tissue fibrosarcoma, ATCC® CCL-121™), MH-22A (mouse hepatocarcinoma, ECACC Cat.No. 96121721), A-549 (human lung carcinoma, ATCC® CCL-185™), NIH 3T3 (mouse Swiss Albino embryo fibroblast, ECACC Cat.No. 93061524), Hek293 (human embryonic kidney, ATCC® CRL-1573™), BHK-21 (hamster Syrian kidney, ATCC® CCL-10™), A-431 (human epidermoid carcinoma, ATCC® CRL-1555™), Saos-2 (human oste osarcoma, ATCC® HTB-85™) HeLa (human epitheloid cervix carcinoma, ATCC® CCL-2™), U937 (human myeloid leukaemia, ATCC® CRL-1593.2™), C6 (rat glioma, ATCC® CCL-107™), B16-F10 (murine melanoma, ATCC® CRL-6475™) cell lines were obtained from American Type Culture Collection (ATCC) and European Collection of Authenticated Cell Cultures […]
# (§5) Table S2. […]
# in vitro = assay type: cell-based, mouse; conditions: mouse
# Excerpt: as §1, §2, §3, §4, §5
# [2] = system: NIH3T3 (Swiss Albino mouse embryo fibroblast); assay: in vitro; assay type: cell-based
# Excerpt: as §1, §2, §3, §4, §5
# [3] = non-cancerous cell line, MTT, 72 h, read-out: Cytotoxicity IC50 NIH3T3
smiles,measurement,setting,value
"CCCCCCCCCCCC[n+]1ccc(C=Cc2cc(OC)c(OC)c(OC)c2)cc1.[Br-] [Compound 6a, 4-(3,4,5-trimethoxystyryl)-N-dodecylpyridinium bromide]","times lower cytotoxicity of 6a compared with 6d, BHK-21","[1]; Syrian hamster, 72 h",12.5 times
same,IC50 at 72 h,in vitro; [3],1.23 µg/mL
same,"times lower cytotoxicity of 6a compared with 6d, NIH3T3","[2]; mouse, 72 h",21.9 times
CCCCCCCCCCCCCCCC[n+]1ccc(C=Cc2cc(OC)c(OC)c(OC)c2)cc1.[Br-] [Compound 6b],Cytotoxicity IC50 BHK-21,[1],1.11 µg/mL
same,Cytotoxicity IC50 NIH3T3,[2],1.02 µg/mL
"CCCCCCCCCCCCCCCC[n+]1ccc(C=CC=Cc2ccc(OC)cc2)cc1.[Br-] [Compound 6c, 1-hexadecyl-4-(4-(4-methoxyphenyl)buta-1,3-dien-1-yl)pyridin-1-ium bromide]",IC50 at 72 h,in vitro,0.24 µg/mL
"CCCCCCCCCCCC[n+]1ccc(C=Cc2cc3c4c(c2)CCCN4CCC3)cc1.[Br-] [Compound 6d, 1-dodecyl-4-(2-(2,3,6,7-tetrahydro-1H,5H-pyrido[3,2,1-ij]quinolin-9-yl)vinyl)pyridin-1-ium bromide]",IC50 at 72 h,in vitro; [3],0.056 µg/mL
"CCCCCCCCCCCCCCCC[n+]1ccc(C=CC=Cc2cc3c4c(c2)CCCN4CCC3)cc1.[Br-] [Compound 6e, 1-hexadecyl-4-(4-(2,3,6,7-tetrahydro-1H,5H-pyrido[3,2,1-ij]quinolin-9-yl)buta-1,3-dien-1-yl)pyridin-1-ium bromide]",IC50 at 72 h,in vitro; [3],3.2 µg/mL
